Measurements taken from patent US11149036B2, “3-(1H-pyrazol-4-yl)pyridine allosteric modulators of the M4 muscarinic acetylcholine receptor” (Merck Sharp & Dohme Corp., priority 2017, dated 2021).

Target: T1, human M4 muscarinic acetylcholine receptor (Homo sapiens, UniProt P08173)
T1 construct: expressed in transfected cells; host or cells: CHO-K1
T1 sequence (P08173 1-479): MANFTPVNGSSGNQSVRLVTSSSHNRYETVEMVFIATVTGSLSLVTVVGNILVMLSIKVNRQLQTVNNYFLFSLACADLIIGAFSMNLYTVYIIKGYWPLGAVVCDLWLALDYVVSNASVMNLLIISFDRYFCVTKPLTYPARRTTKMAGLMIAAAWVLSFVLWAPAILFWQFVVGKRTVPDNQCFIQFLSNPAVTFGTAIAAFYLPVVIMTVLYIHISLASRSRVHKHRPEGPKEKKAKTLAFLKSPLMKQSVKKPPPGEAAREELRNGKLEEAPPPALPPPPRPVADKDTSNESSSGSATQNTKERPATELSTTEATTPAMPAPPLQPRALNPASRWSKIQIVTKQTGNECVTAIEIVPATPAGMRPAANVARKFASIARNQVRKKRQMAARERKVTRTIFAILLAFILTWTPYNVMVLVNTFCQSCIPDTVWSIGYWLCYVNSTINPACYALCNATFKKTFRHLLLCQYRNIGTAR
Assay: human FLIPR-based M4 PAM assay (CHO-K1 cells with human M4 receptor and Gaqi5, calcium dye fluorescence)
Type: cell-based
Settings: inflection point (IP) of dose response curve, acetylcholine added at 20% of maximum response, read-out: M4 FLIPPR Hu IP
Method: (§1) In a typical experiment the M4 muscarinic acetylcholine receptor modulating activity of the compounds of the present invention was determined in accordance with the following experimental method. CHO-K1 cells stably transfected with human M4 receptor and chimeric G-protein Gaqi5 (Coward P, et al., Analytical Biochemistry, 270:242-248 (1999)) are thawed from liquid N2 storage, resuspended in growth medium, plated in black, clear bottom 384 well plates, and incubated 16-20 hours at 37° C., 5% CO2. On the day of assay, growth medium is removed, the cells are washed 2 times with wash buffer, and cells are incubated in dye loading buffer at 37° C., 5% CO2 for ˜1 hour. Following dye loading the cell plates are placed in a FLIPR Tetra instrument and while monitoring dye fluorescence (excitation 470-495 […]), 10 uL of test substance at increasing concentrations is added, and fluorescence values are recorded for 4 min. Next, 10 uL of acetylcholine is added (final concentration calculated so as to achieve 20% of the maximum acetycholine response), and the fluorescence reading is continued for 3.5 min. In some cases, a third addition of acetylcholine (final concentration calculated to achieve 70% of the maximal acetylcholine response) is performed. The resulting dose response curves are fit to a 4 parameter logistic equation and the final result is determined as the inflection point (IP) of the curve
as §1, with “CHO-K1” for “In a typical experiment the M4 muscarinic acetylcholine receptor modulating activity of the compounds of the present invention was determined in accordance with the following experimental method. CHO-K1”, “Gaqi5” for “Gaqi5 (Coward P, et al., Analytical Biochemistry, 270:242-248 (1999))”, “performed.” for “performed. The resulting dose response curves are fit to a 4 parameter logistic equation and the final result is determined as the inflection point (IP) of the curve”

Row | SMILES | EC50 [nM]
1 | Cc1ccc(-c2cnn(CC3CCCC3)c2)c(-c2ccc3cc(F)cnc3c2)n1 [Example 13, 7-(3-(1-(cyclopentylmethyl)-1H-pyrazol-4-yl)-6-methylpyridin-2-yl)-3-fluoroquinoline] | 23
2 | Cc1ccc(-c2cnn(CC3(F)CCCC3)c2)c(-c2ccc3cc(C(F)(F)F)cnc3c2)n1 [Example 14, 7-(3-(1-((1-fluorocyclopentyl)methyl)-1H-pyrazol-4-yl)-6-methylpyridin-2-yl)-3-(trifluoromethyl)quinoline] | 30
3 | Cc1ccc(-c2cnn(CC3(F)CCCC3)c2)c(-c2ccc3c(c2)ncn3C)n1 [Example 16, 5-(3-(1-((1-fluorocyclopentyl)methyl)-1H-pyrazol-4-yl)-6-methylpyridin-2-yl)-1-methyl-1H-benzo[d]imidazole] | 34
4 | Cc1ccc(-c2cnn(CC3(F)CCCC3)c2)c(-c2ccc3c(c2)C(=O)NC3)n1 [Example 17, 6-(3-(1-((1-fluorocyclopentyl)methyl)-1H-pyrazol-4-yl)-6-methylpyridin-2-yl)isoindolin-1-one] | 26
5 | Cc1ccc(-c2cnn(CC3(F)CCCC3)c2)c(-c2cnc3c(c2)ncn3C)n1 [Example 18, 6-(3-(1-((1-fluorocyclopentyl)methyl)-1H-pyrazol-4-yl)-6-methylpyridin-2-yl)-3-methyl-3H-imidazo[4,5-b]pyridine] | 187
6 | Cc1ccc(-c2cnn(CC3(F)CCCC3)c2)c(-c2ccc3c(c2)C(=O)N(CC2CC2)C3)n1 [Example 19, 2-(cyclopropylmethyl)-6-(3-(1-((1-fluorocyclopentyl)methyl)-1H-pyrazol-4-yl)-6-methylpyridin-2-yl)isoindolin-1-one] | 20
7 | Cc1ccc(-c2cnn(CC3(F)CCCC3)c2)c(-c2ccc3c(c2)C(=O)N(C2CC2)C3)n1 [Example 20, 2-cyclopropyl-6-(3-(1-((1-fluorocyclopentyl)methyl)-1H-pyrazol-4-yl)-6-methylpyridin-2-yl)isoindolin-1-one] | 24
8 | Cc1ccc(-c2cnn(CC3(F)CCCC3)c2)c(-c2ccc3cc(F)cnc3c2)n1 [Example 21, 3-fluoro-7-(3-(1-((1-fluorocyclopentyl)methyl)-1H-pyrazol-4-yl)-6-methylpyridin-2-yl)quinoline] | 16
9 | Cc1ccc(-c2cnn(CC3(F)CCCC3)c2F)c(-c2ccc3cccnc3c2)n1 [Example 22, 7-(3-(5-fluoro-1-((1-fluorocyclopentyl)methyl)-1H-pyrazol-4-yl)-6-methylpyridin-2-yl)quinoline] | 15
10 | Cc1ccc(-c2cnn(CC3(F)CCCC3)c2F)c(-c2cnc3c(c2)ncn3C)n1 [Example 23, 6-(3-(5-fluoro-1-((1-fluorocyclopentyl)methyl)-1H-pyrazol-4-yl)-6-methylpyridin-2-yl)-3-methyl-3H-imidazo[4,5-b]pyridine] | 121
11 | Cc1ccc(-c2cnn(CC3(F)CCCC3)c2F)c(-c2ccc3c(c2)ncn3C)n1 [Example 24] | 70
12 | COc1cc2ccc(-c3nc(C)ccc3-c3cnn(CC45CCC(CC4)C5)c3)cc2nn1 [Example 25, 7-(3-(1-(bicyclo[2.2.1]heptan-1-ylmethyl)-1H-pyrazol-4-yl)-6-methylpyridin-2-yl)-3-methoxycinnoline] | 10
13 | Cc1ccc(-c2cnn(CC34CCC(CC3)C4)c2)c(-c2ccc3cccnc3c2)n1 [Example 26, 7-(3-(1-(bicyclo[2.2.1]heptan-1-ylmethyl)-1H-pyrazol-4-yl)-6-methylpyridin-2-yl)quinoline] | 10
14 | Cc1ccc(-c2cnn(CC3CCC(F)(F)C3)c2)c(-c2ccc3cccnc3c2)n1 (stereo not shown) [Example 28, 7-(3-(1-((3,3-difluorocyclopentyl)methyl)-1H-pyrazol-4-yl)-6-methylpyridin-2-yl)quinoline] | 40

The next lines start with the values.

Row | EC50 [nM] | SMILES
15 | 11 | Cc1ccc(-c2cnn(CC3(C)CCCC3)c2)c(-c2ccc3cc(F)cnc3c2)n1 [Example 32, 3-fluoro-7-(6-methyl-3-(1-((1-methylcyclopentyl)methyl)-1H-pyrazol-4-yl)pyridin-2-yl) quinoline]
16 | 35 | Cc1ccc(-c2cnn(CC3(C)CCCC3)c2)c(-c2ccc3c(c2)C(=O)OC3)n1 [Example 33, 6-(6-methyl-3-(1-((1-methylcyclopentyl)methyl)-1H-pyrazol-4-yl)pyridin-2-yl) isobenzofuran-1(3H)-one]
17 | 57 | Cc1ccc(-c2cnn(CC3(C)CCCC3)c2)c(-c2ccc3cn(C)nc3c2)n1 [Example 34, 2-methyl-6-(6-methyl-3-(1-((1-methylcyclopentyl)methyl)-1H-pyrazol-4-yl)pyridin-2-yl)-2H-indazole]
18 | 26 | Cc1ccc(-c2cnn(CC3(C)CCCC3)c2)c(-c2ccc3ccn(C)c(=O)c3c2)n1 [Example 35, 2-methyl-7-(6-methyl-3-(1-((1-methylcyclopentyl)methyl)-1H-pyrazol-4-yl)pyridin-2-yl)isoquinolin-1(2H)-one]
19 | 38 | COc1cc2ccc(-c3nc(C)ccc3-c3cnn(C(F)C4CCCC4)c3F)cc2nn1 (stereo not shown) [Example 36, 7-(3-(1-(cyclopentylfluoromethyl)-5-fluoro-1H-pyrazol-4-yl)-6-methylpyridin-2-yl)-3-methoxycinnoline]
20 | 51 | COc1cc2ccc(-c3nc(C)ccc3-c3cnn(CC4CC5C(C4)C5(F)F)c3)cc2nn1 (stereo not shown) [Example 37, 7-(3-(1-((6,6-difluorobicyclo[3.1.0]hexan-3-yl)methyl)-1H-pyrazol-4-yl)-6-methylpyridin-2-yl)-3-methoxycinnoline]
21 | 13 | N#Cc1ccc(-c2cnn(CC3CCCC3)c2)c(-c2ccc3ccnn3c2)n1 [Example 38, 5-(1-(cyclopentylmethyl)-1H-pyrazol-4-yl)-6-(pyrazolo[1,5-a]pyridin-6-yl)picolinonitrile]
22 | 111 | Cn1ccc2ccc(-c3nc(C#N)ccc3-c3cnn(CC4CCCC4)c3)cc2c1=O [Example 39, 5-(1-(cyclopentylmethyl)-1H-pyrazol-4-yl)-6-(2-methyl-1-oxo-1,2-dihydroisoquinolin-7-yl)picolinonitrile]
23 | 13 | N#Cc1ccc(-c2cnn(CC3(F)CCCC3)c2)c(-c2ccc3c(c2)C(=O)N(C2CC2)C3)n1 [Example 40, 6-(2-cyclopropyl-3-oxoisoindolin-5-yl)-5-(1-((1-fluorocyclopentyl)methyl)-1H-pyrazol-4-yl) picolinonitrile]
24 | 45 | CN1Cc2ncc(-c3nc(C#N)ccc3-c3cnn(CC4(F)CCCC4)c3)cc2C1=O [Example 41, 5-(1-((1-fluorocyclopentyl)methyl)-1H-pyrazol-4-yl)-6-(6-methyl-5-oxo-6,7-dihydro-5H-pyrrolo[3,4-b]pyridin-3-yl)picolinonitrile]
25 | 32 | N#Cc1ccc(-c2cnn(CC3(F)CCCC3)c2)c(-c2ccn3cnnc3c2)n1 [Example 42, 6-([1,2,4]triazolo[4,3-a]pyridin-7-yl)-5-(1-((1-fluorocyclopentyl)methyl)-1H-pyrazol-4-yl)picolinonitrile]
26 | 29 | N#Cc1ccc(-c2cnn(CC3(F)CCCC3)c2)c(-c2ccn3ncnc3c2)n1 [Example 43, 6-([1,2,4]triazolo[1,5-a]pyridin-7-yl)-5-(1-((1-fluorocyclopentyl)methyl)-1H-pyrazol-4-yl)picolinonitrile]
27 | 18 | Cc1nnc2cc(-c3nc(C#N)ccc3-c3cnn(CC4(F)CCCC4)c3)ccn12 [Example 44, 5-(1-((1-fluorocyclopentyl)methyl)-1H-pyrazol-4-yl)-6-(3-methyl-[1,2,4]triazolo [4,3-a]pyridin-7-yl)picolinonitrile]
28 | 64 | CN1C(=O)c2cc(-c3nc(C#N)ccc3-c3cnn(CC4(F)CCCC4)c3)ccc2C1(C)C [Example 45, 5-(1-((1-fluorocyclopentyl)methyl)-1H-pyrazol-4-yl)-6-(1,1,2-trimethyl-3-oxoisoindolin-5-yl)picolinonitrile]
